# Assay results as given in the supplement of paper PMC10307832.
# Key:
# Experiment in all cases: relative viability (nuclei count vs DMSO), 5 days (fraction); higher = more cells survive
# [1] = system: LCLC-97TM1
# Procedure, shortened: (§1)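 Lung cancer cell lines in 1536-well plates got either a single drug or a fixed anchor-drug dose together with five library-drug doses (not always all listed) in √10 steps, by pin tool, on the day after seeding. Nuclei were counted after 5 days, and relative viability is the treated-to-vehicle ratio of nuclei counts. Values are medians of duplicate plates.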
# [2] = system: BEN
# Procedure, shortened: as §1
# [3] = system: 201T
# Procedure, shortened: as §1
# [4] = system: LCLC-103H
# Procedure, shortened: as §1
# [5] = system: NCI-H3122
# Procedure, shortened: as §1
# [6] = system: NCI-H1650
# Procedure, shortened: as §1
# [7] = system: NCI-H2087
# Procedure, shortened: as §1
# [8] = system: NCI-H2228
# Procedure, shortened: as §1
# [9] = system: NCI-H1395
# Procedure, shortened: as §1
# [10] = system: NCI-H2405
# Procedure, shortened: as §1
# [11] = system: SK-LU-1
# Procedure, shortened: as §1
# [12] = system: NCI-H1792
# Procedure, shortened: as §1
# [13] = system: NCI-H322M
# Procedure, shortened: as §1
# [14] = system: RERF-LC-KJ
# Procedure, shortened: as §1
# [15] = system: NCI-H1944
# Procedure, shortened: as §1
# [16] = system: NCI-H1793
# Procedure, shortened: as §1
# [17] = system: HCC-827
# Procedure, shortened: as §1
# [18] = system: CAL-12T
# Procedure, shortened: as §1
# [19] = system: NCI-H727
# Procedure, shortened: as §1
# [20] = system: NCI-H1437
# Procedure, shortened: as §1
# [21] = system: NCI-H647
# Procedure, shortened: as §1
# [22] = system: LXF-289
# Procedure, shortened: as §1
smiles,measurement,setting,value
COc1cc2nccc(Oc3ccc(NC(=O)Nc4cc(C)on4)c(Cl)c3)c2cc1OC [Tivozanib] + COc1cccc2cc(-c3nc([C@H]4CC[C@H](C(=O)O)CC4)n4ncnc(N)c34)[nH]c12 [OSI-027] (partner 0.5 µM),relative viability,[1]; first compound 0.005 µM,0.52
same,relative viability,[1]; first compound 0.01581 µM,0.573
same,relative viability,[1]; first compound 0.05 µM,0.636
same,relative viability,[1]; first compound 0.1581 µM,0.476
same,relative viability,[1]; first compound 0.5 µM,0.455
same,relative viability,[2]; first compound 0.005 µM,0.281
same,relative viability,[2]; first compound 0.01581 µM,0.306
same,relative viability,[2]; first compound 0.05 µM,0.311
same,relative viability,[2]; first compound 0.1581 µM,0.298
same,relative viability,[2]; first compound 0.5 µM,0.318
same,relative viability,[3]; first compound 0.005 µM,0.777
same,relative viability,[3]; first compound 0.01581 µM,0.798
same,relative viability,[3]; first compound 0.05 µM,0.36
same,relative viability,[3]; first compound 0.1581 µM,0.572
same,relative viability,[3]; first compound 0.5 µM,0.709
same,relative viability,[4]; first compound 0.005 µM,0.475
same,relative viability,[4]; first compound 0.01581 µM,0.481
same,relative viability,[4]; first compound 0.05 µM,0.423
same,relative viability,[4]; first compound 0.1581 µM,0.369
same,relative viability,[4]; first compound 0.5 µM,0.498
same,relative viability,[5]; first compound 0.005 µM,0.971
same,relative viability,[5]; first compound 0.01581 µM,0.98
same,relative viability,[5]; first compound 0.05 µM,1.05
same,relative viability,[5]; first compound 0.1581 µM,0.859
same,relative viability,[5]; first compound 0.5 µM,0.925
same,relative viability,[6]; first compound 0.005 µM,0.524
same,relative viability,[6]; first compound 0.01581 µM,0.746
same,relative viability,[6]; first compound 0.05 µM,0.709
same,relative viability,[6]; first compound 0.1581 µM,0.591
same,relative viability,[6]; first compound 0.5 µM,0.558
same,relative viability,[7]; first compound 0.005 µM,0.461
same,relative viability,[7]; first compound 0.01581 µM,0.6
same,relative viability,[7]; first compound 0.05 µM,0.558
same,relative viability,[7]; first compound 0.1581 µM,0.376
same,relative viability,[7]; first compound 0.5 µM,0.44
same,relative viability,[8]; first compound 0.005 µM,0.492
same,relative viability,[8]; first compound 0.01581 µM,0.54
same,relative viability,[8]; first compound 0.05 µM,0.615
same,relative viability,[8]; first compound 0.1581 µM,0.488
same,relative viability,[8]; first compound 0.5 µM,0.485
same,relative viability,[9]; first compound 0.005 µM,0.52
same,relative viability,[9]; first compound 0.01581 µM,0.635
same,relative viability,[9]; first compound 0.05 µM,0.648
same,relative viability,[9]; first compound 0.1581 µM,0.546
same,relative viability,[9]; first compound 0.5 µM,0.528
same,relative viability,[10]; first compound 0.005 µM,0.631
same,relative viability,[10]; first compound 0.01581 µM,0.716
same,relative viability,[10]; first compound 0.05 µM,0.684
same,relative viability,[10]; first compound 0.1581 µM,0.526
same,relative viability,[10]; first compound 0.5 µM,0.577
same,relative viability,[11]; first compound 0.005 µM,0.343
same,relative viability,[11]; first compound 0.01581 µM,0.314
same,relative viability,[11]; first compound 0.05 µM,0.383
same,relative viability,[11]; first compound 0.1581 µM,0.24
same,relative viability,[11]; first compound 0.5 µM,0.338
same,relative viability,[12]; first compound 0.005 µM,0.665
same,relative viability,[12]; first compound 0.01581 µM,0.633
same,relative viability,[12]; first compound 0.05 µM,0.68
same,relative viability,[12]; first compound 0.1581 µM,0.728
same,relative viability,[12]; first compound 0.5 µM,0.746
same,relative viability,[13]; first compound 0.005 µM,0.513
same,relative viability,[13]; first compound 0.01581 µM,0.603
same,relative viability,[13]; first compound 0.05 µM,0.545
same,relative viability,[13]; first compound 0.1581 µM,0.455
same,relative viability,[13]; first compound 0.5 µM,0.461
same,relative viability,[14]; first compound 0.005 µM,0.458
same,relative viability,[14]; first compound 0.01581 µM,0.62
same,relative viability,[14]; first compound 0.05 µM,0.657
same,relative viability,[14]; first compound 0.1581 µM,0.415
same,relative viability,[14]; first compound 0.5 µM,0.59
same,relative viability,[15]; first compound 0.005 µM,0.396
same,relative viability,[15]; first compound 0.01581 µM,0.431
same,relative viability,[15]; first compound 0.05 µM,0.449
same,relative viability,[15]; first compound 0.1581 µM,0.344
same,relative viability,[15]; first compound 0.5 µM,0.447
same,relative viability,[16]; first compound 0.005 µM,0.225
same,relative viability,[16]; first compound 0.01581 µM,0.219
same,relative viability,[16]; first compound 0.05 µM,0.344
same,relative viability,[16]; first compound 0.1581 µM,0.249
same,relative viability,[16]; first compound 0.5 µM,0.235
same,relative viability,[17]; first compound 0.005 µM,0.74
same,relative viability,[17]; first compound 0.01581 µM,0.693
same,relative viability,[17]; first compound 0.05 µM,0.766
same,relative viability,[17]; first compound 0.1581 µM,0.621
same,relative viability,[17]; first compound 0.5 µM,0.763
same,relative viability,[18]; first compound 0.005 µM,0.583
same,relative viability,[18]; first compound 0.01581 µM,0.737
same,relative viability,[18]; first compound 0.05 µM,0.762
same,relative viability,[18]; first compound 0.1581 µM,0.364
same,relative viability,[18]; first compound 0.5 µM,0.418
same,relative viability,[19]; first compound 0.005 µM,0.501
same,relative viability,[19]; first compound 0.01581 µM,0.799
same,relative viability,[19]; first compound 0.05 µM,0.688
same,relative viability,[19]; first compound 0.1581 µM,0.434
same,relative viability,[19]; first compound 0.5 µM,0.68
same,relative viability,[20]; first compound 0.005 µM,0.887
same,relative viability,[20]; first compound 0.01581 µM,0.843
same,relative viability,[20]; first compound 0.05 µM,0.946
same,relative viability,[20]; first compound 0.1581 µM,0.661
same,relative viability,[20]; first compound 0.5 µM,0.837
same,relative viability,[21]; first compound 0.005 µM,0.74
same,relative viability,[21]; first compound 0.01581 µM,0.618
same,relative viability,[21]; first compound 0.05 µM,0.728
same,relative viability,[21]; first compound 0.1581 µM,0.526
same,relative viability,[21]; first compound 0.5 µM,0.658
same,relative viability,[22]; first compound 0.005 µM,0.812
same,relative viability,[22]; first compound 0.01581 µM,0.786
same,relative viability,[22]; first compound 0.05 µM,0.845
same,relative viability,[22]; first compound 0.1581 µM,0.638
same,relative viability,[22]; first compound 0.5 µM,0.618
